# Measured values published in US20240174634A1, “Aldehyde Dehydrogenase Inhibitors and Their Therapeutic Use” (priority 2020, published 2024).
# Key:
# ALDH1A2 = molecular target: T1, ALDH1A2 (Homo sapiens, UniProt O94788); assay: Selectivity biochemical assay, NAD(P)H-Glo Detection System
# T1 construct: His-tag; made in house; host or cells: E. coli Rosetta (DE3)
# T1 sequence (O94788 1-518): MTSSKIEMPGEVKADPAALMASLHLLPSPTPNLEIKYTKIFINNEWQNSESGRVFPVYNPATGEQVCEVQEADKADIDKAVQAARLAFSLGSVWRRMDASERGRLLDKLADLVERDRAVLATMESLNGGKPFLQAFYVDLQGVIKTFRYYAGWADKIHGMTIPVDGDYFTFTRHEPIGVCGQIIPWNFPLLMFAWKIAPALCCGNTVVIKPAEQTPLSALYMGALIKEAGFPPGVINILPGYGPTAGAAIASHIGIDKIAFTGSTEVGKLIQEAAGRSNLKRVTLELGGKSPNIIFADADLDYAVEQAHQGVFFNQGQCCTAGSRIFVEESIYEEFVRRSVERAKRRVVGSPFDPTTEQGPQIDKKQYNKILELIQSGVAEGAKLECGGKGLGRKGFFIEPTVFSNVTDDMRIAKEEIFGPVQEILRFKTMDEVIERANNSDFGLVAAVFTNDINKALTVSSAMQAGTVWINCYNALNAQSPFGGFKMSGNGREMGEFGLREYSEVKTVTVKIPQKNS
# Excerpt: (§1) Cloning: Open reading frames corresponding to the protein coding sequences of full length human ALDH1A1 (Uniprot ID P00352), ALDH1A2 (094788) and ALDH1A3 (P47895) were polymerase chain reaction (PCR) amplified from human cDNA and inserted into the multi-cloning sites of the commercially available (Novagen) E. coli expression vectors pET47b (ALDH1A1, EcoRI restriction site; ALDH1A2, BamHI and EcoRI sites) or pET28a (ALDH1A3, NdeI and BamHI sites), using standard molecular genetic techniques. Recombinant DNA products were sequence verified prior to use in expression studies.
# (§2) Expression: Expression constructs were transformed into the E. coli strain Rosetta (DE3) (Merck) and individual colonies used to inoculate 10 mL lysogen broth (LB) medium supplemented with kanamycin and chloramphenicol at 50 μg/mL and 34 μg/mL, respectively. Cultures were grown to saturation overnight at 37° C., prior to being used to sub-inoculate fresh 1 L LB medium cultures (plus antibiotics, as before). 1 L cultures were grown at 37° C., 200 rpm, throughout the day until the optical density at 600 nm (OD600) reached ˜0.8, at which point growth temperature was reduced to 18° C. and 1 mM isopropyl β-d-1-thiogalacto pyranoside (IPTG) added to induce protein expression.
# (§3) Cultures were left overnight (at least 16 h) under these conditions and the following day harvested by centrifugation (4000 G, 10 minutes). Culture supernatant was discarded and cell pellets stored at −80° C. until further processing.
# (§4) Purification: Cell pellets were thawed on ice, re-suspended in Ni Affinity Buffer A (20 mM HEPES pH 7.5, 300 mM NaCl, 20 mM imidazole, 1 mM tris(2-carboxyethyl)phosphine (TCEP)) with protease inhibitors (cOmplete Ultra protease inhibitor, Roche), and lysed by sonication. Lysates were clarified by centrifugation at 18,000 G, 4° C., for 40 minutes, and loaded directly onto a pre-equilibrated (Buffer A) 5 mL HisTrap Fast Flow column (GE Healthcare) by way of an AKTA Fast Protein Liquid Chromatography (FPLC) system. The column was sequentially treated with 6 column volumes (CV) 100% Buffer A, 8 CV of 90% Buffer A:10% Buffer B (20 mM 4-(2-hydroxyethyl)-1-piperazineethanesulfonic acid (HEPES) pH 7.5, 300 mM NaCl, 500 mM imidazole, 1 mM TCEP) and finally a linear gradient from 10-70% Buffer B over 8 CV to elute recombinant His-tagged protein. Relevant fractions (as measured by 280 nm absorbance) collected during elution were pooled and subjected to further purification by size exclusion chromatography (Superdex 200 26/600, GE Healthcare, running buffer 20 mM 2-(carbamoylmethylamino)ethanesulfonic acid (ACES) pH 7.5, 1 mM TCEP). Relevant fractions from this step were pooled, aliquoted, and stored at −80° C. until required for compound profiling assays.
# (§5) Materials: ALDH2 was purchased from Abnova. Tris(hydroxymethyl)aminomethane (Tris) was purchased from MP Biomedicals. TCEP, ethylenediaminetetraacetic acid (EDTA), propionaldehyde, DMSO and Tween-20 were purchased from Sigma. Nicotinamide adenine dinucleotide (NAD) was obtained from Abcam. The NAD(P)H-Glo™ Detection System was purchased from Promega. White, non-binding surface, 384 well plates were supplied by Corning (#3574).
# (§6) Method: Inhibition of ALDH1A3 was assessed using the NAD(P)H-Glo™ Detection System (Cat. No. G9062) from Promega. This assay detects the production of NADH from NAD by ALDH1A3 via the coupled enzymatic conversion of a proluciferin reductase substrate to generate a luminescent signal. Inhibition of ALDH1A3 by small molecule inhibitors will result in reduction or abrogation of luminescence signal increase above background. Inhibition of ALDH1A1, ALDH1A2 and ALDH2 (selectivity assays) were assessed using the same assay.
# (§7) Compounds were dosed into Corning 384 well assay plates using an Echo acoustic dispenser to give 10 point curves in a 3-fold dilution series. Compounds were dispensed from a 20 mM DMSO stock and initially screened at a top concentration of 20 μM (ALDH1A3) or 250 μM (ALDH1A1, ALDH1A2 & ALDH2). […]
# ALDH1A1 = molecular target: T2, ALDH1A1 (Homo sapiens, UniProt P00352); assay: as above
# T2 construct: His-tag; made in house; host or cells: E. coli Rosetta (DE3)
# T2 sequence (P00352 1-501): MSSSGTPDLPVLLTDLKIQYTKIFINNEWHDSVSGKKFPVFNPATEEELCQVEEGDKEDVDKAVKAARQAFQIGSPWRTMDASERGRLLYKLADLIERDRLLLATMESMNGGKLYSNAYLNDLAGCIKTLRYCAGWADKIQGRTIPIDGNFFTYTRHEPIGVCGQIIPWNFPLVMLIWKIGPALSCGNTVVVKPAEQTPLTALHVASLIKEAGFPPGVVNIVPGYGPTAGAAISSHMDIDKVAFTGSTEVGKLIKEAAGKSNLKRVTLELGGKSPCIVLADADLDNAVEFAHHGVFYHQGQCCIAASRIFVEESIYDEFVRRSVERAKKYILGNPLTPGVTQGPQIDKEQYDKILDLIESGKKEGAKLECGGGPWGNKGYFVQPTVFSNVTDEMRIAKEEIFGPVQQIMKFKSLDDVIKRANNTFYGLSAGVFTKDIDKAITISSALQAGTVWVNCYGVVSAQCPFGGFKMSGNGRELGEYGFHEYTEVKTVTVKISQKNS
# Excerpt: as §1, §2, §3, §4, §5, §6, §7
SMILES,IC50 (ALDH1A2),IC50 (ALDH1A1)
"O=C1CCCc2cc(OCCN3CCCC3c3cccc(F)c3)ccc2N1 (stereo not shown) [ALDHI-2020, 7-[2-[2-(3-fluorophenyl)pyrrolidin-1-yl]ethoxy]-1,3,4,5-tetrahydro-1-benzazepin-2-one]",1 to 10 µM,≥ 100 µM
"O=C1CCc2cc(OCCN3CCCC3c3cccc(F)c3)c(F)cc2N1 (stereo not shown) [ALDHI-2050, 7-fluoro-6-[2-[2-(3-fluorophenyl)pyrrolidin-1-yl]ethoxy]-3,4-dihydro-1H-quinolin-2-one]",1 to 10 µM,≥ 100 µM
"O=C1CCc2cc(NC(=O)c3scnc3-c3ccccc3F)ccc2N1 [ALDHI-1021, 4-(2-fluorophenyl)-N-(2-oxo-3,4-dihydro-1H-quinolin-6-yl)thiazole-5-carboxamide]",1 to 10 µM,≥ 100 µM
"O=C1CCc2cc(NC(=O)c3scnc3-c3cccs3)ccc2N1 [ALDHI-1023, N-(2-oxo-3,4-dihydro-1H-quinolin-6-yl)-4-(2-thienyl)thiazole-5-carboxamide]",0.1 to 1 µM,≥ 100 µM
"CN(CCOc1ccc2c(c1)CCC(=O)N2)Cc1cccc(F)c1 [ALDHI-3001, 6-[2-[(3-fluorophenyl)methyl-methyl-amino]ethoxy]-3,4-dihydro-1H-quinolin-2-one]",1 to 10 µM,≥ 100 µM
"O=C1CSc2cc(OCCN3CCCC3c3ccccn3)ccc2N1 (stereo not shown) [ALDHI-2027, 7-[2-[2-(2-pyridyl)pyrrolidin-1-yl]ethoxy]-4H-1,4-benzothiazin-3-one]",10 to 100 µM,≥ 100 µM
"CC1Oc2cc(OCCN3CCCC3c3cccc(F)c3)ccc2NC1=O (stereo not shown) [ALDHI-2044, 7-[2-[2-(3-fluorophenyl)pyrrolidin-1-yl]ethoxy]-2-methyl-4H-1,4-benzoxazin-3-one]",10 to 100 µM,≥ 100 µM
"O=C1CCc2cc(OCCN3CC(F)(F)CC3c3cccc(F)c3)ccc2N1 (stereo not shown) [ALDHI-2053, 6-[2-[4,4-difluoro-2-(3-fluorophenyl)pyrrolidin-1-yl]ethoxy]-3,4-dihydro-1H-quinolin-2-one]",1 to 10 µM,≥ 100 µM
"O=C1CCc2cc(NC(=O)c3ncsc3-c3cccnc3)ccc2N1 [ALDHI-1010, N-(2-oxo-3,4-dihydro-1H-quinolin-6-yl)-5-(3-pyridyl)thiazole-4-carboxamide]",1 to 10 µM,≥ 100 µM
"C[C@H](c1ccccc1)N(CCO)CCOc1ccc2c(c1)CCC(=O)N2 [ALDHI-3006, 6-[2-[2-hydroxyethyl-[(1R)-1-phenylethyl]amino]ethoxy]-3,4-dihydro-1H-quinolin-2-one]",1 to 10 µM,10 to 100 µM
"O=C1CCc2cc(OCCN3CCCC3c3ccc(F)c(F)c3)ccc2N1 (stereo not shown) [ALDHI-2039, 6-[2-[2-(3,4-difluorophenyl)pyrrolidin-1-yl]ethoxy]-3,4-dihydro-1H-quinolin-2-one]",1 to 10 µM,1 to 10 µM
"Cc1noc(-c2ccccc2C(=O)Nc2ccc3c(c2)CCC(=O)N3)n1 [ALDHI-1008, 2-(3-methyl-1,2,4-oxadiazol-5-yl)-N-(2-oxo-1,2,3,4-tetrahydroquinolin-6-yl)benzamide]",1 to 10 µM,≥ 100 µM
"O=C1CCc2cc(NC(=O)c3ncsc3-c3ccsc3)ccc2N1 [ALDHI-1011, N-(2-oxo-3,4-dihydro-1H-quinolin-6-yl)-5-(3-thienyl)thiazole-4-carboxamide]",1 to 10 µM,≥ 100 µM
"O=C1CCc2cc(NC(=O)c3scnc3-c3cccc(F)c3)ccc2N1 [ALDHI-1003, 4-(3-fluorophenyl)-N-(2-oxo-3,4-dihydro-1H-quinolin-6-yl)thiazole-5-carboxamide]",1 to 10 µM,≥ 100 µM
"Cn1cc(C2CCCN2CCOc2ccc3c(c2)SCC(=O)N3)cn1 (stereo not shown) [ALDHI-2026, 7-[2-[2-(1-methylpyrazol-4-yl)pyrrolidin-1-yl]ethoxy]-4H-1,4-benzothiazin-3-one]",≥ 100 µM,≥ 100 µM
"O=C1CSc2cc(OCCN3CCCC3c3cccnc3)ccc2N1 (stereo not shown) [ALDHI-2028, 7-[2-[2-(3-pyridyl)pyrrolidin-1-yl]ethoxy]-4H-1,4-benzothiazin-3-one]",≥ 100 µM,≥ 100 µM
"O=C1CCc2cc(OCCN3CCC[C@H]3c3cccc(F)c3)ccc2N1 [ALDHI-2018, 6-[2-[(2S)-2-(3-fluorophenyl)pyrrolidin-1-yl]ethoxy]-3,4-dihydro-1H-quinolin-2-one]",0.1 to 1 µM,≥ 100 µM
"CN(CCOc1ccc2c(c1)CCC(=O)N2)C(CO)c1cccc(F)c1 (stereo not shown) [ALDHI-3003, 6-[2-[[1-(3-fluorophenyl)-2-hydroxy-ethyl]-methyl-amino]ethoxy]-3,4-dihydro-1H-quinolin-2-one]",1 to 10 µM,≥ 100 µM
"CC1Cc2cc(OCCN3CCCC3c3cccc(F)c3)ccc2NC1=O (stereo not shown) [ALDHI-2048, 6-[2-[2-(3-fluorophenyl)pyrrolidin-1-yl]ethoxy]-3-methyl-3,4-dihydro-1H-quinolin-2-one]",0.1 to 1 µM,10 to 100 µM
"O=C1CCc2cc(NC(=O)c3sc(N4CC(O)C4)nc3-c3cccc(F)c3)ccc2N1 [ALDHI-1004, 4-(3-fluorophenyl)-2-(3-hydroxyazetidin-1-yl)-N-(2-oxo-3,4-dihydro-1H-quinolin-6-yl)thiazole-5-carboxamide]",≥ 100 µM,≥ 100 µM
"O=C1CCc2cc(OCCN3CCOCC3c3cccc(F)c3)ccc2N1 (stereo not shown) [ALDHI-2031, 6-[2-[3-(3-fluorophenyl)morpholin-4-yl]ethoxy]-3,4-dihydro-1H-quinolin-2-one]",0.1 to 1 µM,≥ 100 µM
"O=C1CCc2cc(OCCN3CCCCC3c3cccc(F)c3)ccc2N1 (stereo not shown) [ALDHI-2038, 6-[2-[2-(3-fluorophenyl)-1-piperidyl]ethoxy]-3,4-dihydro-1H-quinolin-2-one]",1 to 10 µM,10 to 100 µM
"O=C1CCc2cc(OCCN3CCCC3c3ccsc3)ccc2N1 (stereo not shown) [ALDHI-2014, 6-[2-[2-(3-thienyl)pyrrolidin-1-yl]ethoxy]-3,4-dihydro-1H-quinolin-2-one]",≥ 100 µM,≥ 100 µM
